According to ChEMBL document CHEMBL3763020, “Tetramethylpyrazine improves the recovery of spinal cord injury via Akt/Nrf2/HO-1 pathway” (2016):
The source made the active and inactive calls. The calls are words filed in the database; no cut-off is given here.

Experiments:
Rattus norvegicus [1] = test: Neuroprotective activity in Sprague-Dawley rat model of spinal cord injury assessed as increase in HO-1 mRNA expression at 200 mg/kg, ip by real time PCR method in presence of Akt inhibitor LY294002; type: functional, organism-based
Rattus norvegicus [2] = test: Neuroprotective activity in Sprague-Dawley rat model of spinal cord injury assessed as decrease in activated caspase-3 level at 200 mg/kg, ip in presence of 25 umol/kg of HO-1 inhibitor ZnPP; type: functional, organism-based
Rattus norvegicus [3] = test: Neuroprotective activity in Sprague-Dawley rat model of spinal cord injury assessed as increase in Akt phosphorylation at 200 mg/kg, ip by western blot analysis in presence of 25 umol/kg of HO-1 inhibitor ZnPP; type: functional, organism-based
Rattus norvegicus [4] = test: Neuroprotective activity in Sprague-Dawley rat model of spinal cord injury assessed as increase in Nrf2 mRNA expression at 200 mg/kg, ip by real time PCR method; type: functional, organism-based
Rattus norvegicus [5] = test: Neuroprotective activity in Sprague-Dawley rat model of spinal cord injury assessed as decrease in TNF-alpha levels in spinal cord tissue at 200 mg/kg, ip by ELISA; type: functional, organism-based
Rattus norvegicus [6] = test: Neuroprotective activity in Sprague-Dawley rat model of spinal cord injury assessed as decrease in IL1-beta levels in spinal cord tissue at 200 mg/kg, ip by ELISA; type: functional, organism-based
Rattus norvegicus [7] = test: Neuroprotective activity in Sprague-Dawley rat model of spinal cord injury assessed as decrease in activated caspase-3 level at 200 mg/kg, ip in presence of Akt inhibitor LY294002; type: functional, organism-based
Rattus norvegicus [8] = test: Neuroprotective activity in Sprague-Dawley rat model of spinal cord injury assessed as accumulation at G0/G1 phase at 200 mg/kg, ip by TUNEL staining-based flow cytometric analysis (reference value: 34.1 %); type: functional
Rattus norvegicus [9] = test: Neuroprotective activity in Sprague-Dawley rat model of spinal cord injury assessed as increase in glutathione level at 200 mg/kg, ip by reduced glutathione assay in presence of 25 umol/kg of HO-1 inhibitor ZnPP; type: functional, organism-based
Rattus norvegicus [10] = test: Neuroprotective activity in Sprague-Dawley rat model of spinal cord injury assessed as decrease in IL-18 levels in spinal cord tissue at 200 mg/kg, ip by ELISA; type: functional, organism-based
Rattus norvegicus [11] = test: Neuroprotective activity in Sprague-Dawley rat model of spinal cord injury assessed as increase in glutathione level at 200 mg/kg, ip by reduced glutathione assay; type: functional, organism-based
Rattus norvegicus [12] = test: Neuroprotective activity in Sprague-Dawley rat model of spinal cord injury assessed as increase in Akt phosphorylation at 200 mg/kg, ip by Western blot analysis; type: functional, organism-based
Rattus norvegicus [13] = test: Neuroprotective activity in Sprague-Dawley rat model of spinal cord injury assessed as decrease in IL1-beta levels in spinal cord tissue at 200 mg/kg, ip by ELISA in presence of 25 umol/kg of HO-1 inhibitor ZnPP; type: functional, organism-based
Rattus norvegicus [14] = test: Neuroprotective activity in Sprague-Dawley rat model of spinal cord injury assessed as decrease in Evans blue leakage in spinal cord tissue at 200 mg/kg, ip after 48 hrs; type: functional, organism-based
Rattus norvegicus [15] = test: Neuroprotective activity in Sprague-Dawley rat model of spinal cord injury assessed as decrease in IL-18 levels in spinal cord tissue at 200 mg/kg, ip by ELISA in presence of 25 umol/kg of HO-1 inhibitor ZnPP; type: functional, organism-based
Rattus norvegicus [16] = test: Neuroprotective activity in Sprague-Dawley rat model of spinal cord injury assessed as decrease in Evans blue leakage in spinal cord tissue at 200 mg/kg, ip after 48 hrs in presence of Akt inhibitor LY294002; type: functional, organism-based
Rattus norvegicus [17] = test: Neuroprotective activity in Sprague-Dawley rat model of spinal cord injury assessed as decrease in activated caspase-9 level at 200 mg/kg, ip in presence of 25 umol/kg of HO-1 inhibitor ZnPP; type: functional, organism-based
Rattus norvegicus [18] = test: Neuroprotective activity in Sprague-Dawley rat model of spinal cord injury assessed as locomotor function recovery at 200 mg/kg, ip measured during 3 to 28 days in presence of Akt inhibitor LY294002; type: functional, organism-based
Rattus norvegicus [19] = test: Neuroprotective activity in Sprague-Dawley rat model of spinal cord injury assessed as decrease in IL-18 levels in spinal cord tissue at 200 mg/kg, ip by ELISA in presence of Akt inhibitor LY294002; type: functional, organism-based
Rattus norvegicus [20] = test: Induction of Nrf2 binding to HO-1 promoter in Sprague-Dawley rat model of spinal cord injury at 200 mg/kg, ip by chromatin immunoprecipitation assay in presence of Akt inhibitor LY294002; type: functional, organism-based
Rattus norvegicus [21] = test: Induction of Nrf2 binding to HO-1 promoter in Sprague-Dawley rat model of spinal cord injury at 200 mg/kg, ip by chromatin immunoprecipitation assay in presence of 25 umol/kg of HO-1 inhibitor ZnPP; type: functional, organism-based
Rattus norvegicus [22] = test: Induction of Nrf2 binding to HO-1 promoter in Sprague-Dawley rat model of spinal cord injury at 200 mg/kg, ip by chromatin immunoprecipitation assay; type: functional, organism-based
Rattus norvegicus [23] = test: Neuroprotective activity in Sprague-Dawley rat model of spinal cord injury assessed as increase in superoxide dismutase activity at 200 mg/kg, ip in presence of 25 umol/kg of HO-1 inhibitor ZnPP; type: functional, organism-based
Rattus norvegicus [24] = test: Neuroprotective activity in Sprague-Dawley rat model of spinal cord injury assessed as decrease in Evans blue leakage in spinal cord tissue at 200 mg/kg, ip after 24 hrs in presence of 25 umol/kg of HO-1 inhibitor ZnPP; type: functional, organism-based
Rattus norvegicus [25] = test: Neuroprotective activity in Sprague-Dawley rat model of spinal cord injury assessed as decrease in thiobarbituric acid reactive substances level at 200 mg/kg, ip by malondialdehyde assay in presence of Akt inhibitor LY294002; type: functional, organism-based
Rattus norvegicus [26] = test: Neuroprotective activity in Sprague-Dawley rat model of spinal cord injury assessed as increase in Nrf2 mRNA expression at 200 mg/kg, ip by real time PCR method in presence of 25 umol/kg of HO-1 inhibitor ZnPP; type: functional, organism-based
Rattus norvegicus [27] = test: Neuroprotective activity in Sprague-Dawley rat model of spinal cord injury assessed as decrease in activated caspase-3 level at 200 mg/kg, ip; type: functional, organism-based
Rattus norvegicus [28] = test: Neuroprotective activity in Sprague-Dawley rat model of spinal cord injury assessed as accumulation at G0/G1 phase at 200 mg/kg, ip by TUNEL staining-based flow cytometric analysis in presence of 25 umol/kg of HO-1 inhibitor ZnPP (reference value: 34.1 %); type: functional
Rattus norvegicus [29] = test: Neuroprotective activity in Sprague-Dawley rat model of spinal cord injury assessed as accumulation at G0/G1 phase at 200 mg/kg, ip by TUNEL staining-based flow cytometric analysis in presence of Akt inhibitor LY294002 (reference value: 34.1 %); type: functional
Rattus norvegicus [30] = test: Neuroprotective activity in Sprague-Dawley rat model of spinal cord injury assessed as increase in Akt phosphorylation at 200 mg/kg, ip by western blot analysis in presence of Akt inhibitor LY294002; type: functional, organism-based
Rattus norvegicus [31] = test: Neuroprotective activity in Sprague-Dawley rat model of spinal cord injury assessed as increase in HO-1 mRNA expression at 200 mg/kg, ip by real time PCR method; type: functional, organism-based
Rattus norvegicus [32] = test: Neuroprotective activity in Sprague-Dawley rat model of spinal cord injury assessed as decrease in TNF-alpha levels in spinal cord tissue at 200 mg/kg, ip by ELISA in presence of Akt inhibitor LY294002; type: functional, organism-based
Rattus norvegicus [33] = test: Neuroprotective activity in Sprague-Dawley rat model of spinal cord injury assessed as decrease in IL1-beta levels in spinal cord tissue at 200 mg/kg, ip by ELISA in presence of Akt inhibitor LY294002; type: functional, organism-based
Rattus norvegicus [34] = test: Neuroprotective activity in Sprague-Dawley rat model of spinal cord injury assessed as increase in HO-1 mRNA expression at 200 mg/kg, ip by real time PCR method in presence of 25 umol/kg of HO-1 inhibitor ZnPP; type: functional, organism-based
Rattus norvegicus [35] = test: Neuroprotective activity in Sprague-Dawley rat model of spinal cord injury assessed as decrease in thiobarbituric acid reactive substances level at 200 mg/kg, ip by malondialdehyde assay; type: functional, organism-based
Rattus norvegicus [36] = test: Neuroprotective activity in Sprague-Dawley rat model of spinal cord injury assessed as decrease in TNF-alpha levels in spinal cord tissue at 200 mg/kg, ip by ELISA in presence of 25 umol/kg of HO-1 inhibitor ZnPP; type: functional, organism-based
Rattus norvegicus [37] = test: Neuroprotective activity in Sprague-Dawley rat model of spinal cord injury assessed as increase in superoxide dismutase activity at 200 mg/kg, ip in presence of Akt inhibitor LY294002; type: functional, organism-based
Rattus norvegicus [38] = test: Neuroprotective activity in Sprague-Dawley rat model of spinal cord injury assessed as increase in glutathione level at 200 mg/kg, ip by reduced glutathione assay in presence of Akt inhibitor LY294002; type: functional, organism-based
Rattus norvegicus [39] = test: Neuroprotective activity in Sprague-Dawley rat model of spinal cord injury assessed as decrease in thiobarbituric acid reactive substances level at 200 mg/kg, ip by malondialdehyde assay in presence of 25 umol/kg of HO-1 inhibitor ZnPP; type: functional, organism-based
Rattus norvegicus [40] = test: Neuroprotective activity in Sprague-Dawley rat model of spinal cord injury assessed as locomotor function recovery at 200 mg/kg, ip measured during 3 to 28 days; type: functional, organism-based
Rattus norvegicus [41] = test: Neuroprotective activity in Sprague-Dawley rat model of spinal cord injury assessed as decrease in Evans blue leakage in spinal cord tissue at 200 mg/kg, ip after 24 hrs in presence of Akt inhibitor LY294002; type: functional, organism-based
Rattus norvegicus [42] = test: Neuroprotective activity in Sprague-Dawley rat model of spinal cord injury assessed as decrease in activated caspase-9 level at 200 mg/kg, ip in presence of Akt inhibitor LY294002; type: functional, organism-based
Rattus norvegicus [43] = test: Neuroprotective activity in Sprague-Dawley rat model of spinal cord injury assessed as decrease in Evans blue leakage in spinal cord tissue at 200 mg/kg, ip after 24 hrs; type: functional, organism-based
Rattus norvegicus [44] = test: Neuroprotective activity in Sprague-Dawley rat model of spinal cord injury assessed as locomotor function recovery at 200 mg/kg, ip measured during 3 to 28 days in presence of 25 umol/kg of HO-1 inhibitor ZnPP; type: functional, organism-based
Rattus norvegicus [45] = test: Neuroprotective activity in Sprague-Dawley rat model of spinal cord injury assessed as increase in superoxide dismutase activity at 200 mg/kg, ip; type: functional, organism-based
Rattus norvegicus [46] = test: Neuroprotective activity in Sprague-Dawley rat model of spinal cord injury assessed as decrease in activated caspase-9 level at 200 mg/kg, ip; type: functional, organism-based
Rattus norvegicus [47] = test: Neuroprotective activity in Sprague-Dawley rat model of spinal cord injury assessed as decrease in Evans blue leakage in spinal cord tissue at 200 mg/kg, ip after 48 hrs in presence of 25 umol/kg of HO-1 inhibitor ZnPP; type: functional, organism-based
Rattus norvegicus [48] = test: Neuroprotective activity in Sprague-Dawley rat model of spinal cord injury assessed as increase in Nrf2 mRNA expression at 200 mg/kg, ip by real time PCR method in presence of Akt inhibitor LY294002; type: functional, organism-based

Cc1nc(C)c(C)nc1C [LIGUSTRAZINE]
Activity (Rattus norvegicus [1]): inactive | Activity (Rattus norvegicus [2]): inactive | Activity (Rattus norvegicus [3]): Active | Activity (Rattus norvegicus [4]): Active | Activity (Rattus norvegicus [5]): Active | Activity (Rattus norvegicus [6]): Active | Activity (Rattus norvegicus [7]): inactive | Activity (Rattus norvegicus [8]): 8% | Activity (Rattus norvegicus [9]): inactive | Activity (Rattus norvegicus [10]): Active | Activity (Rattus norvegicus [11]): Active | Activity (Rattus norvegicus [12]): Active | Activity (Rattus norvegicus [13]): inactive | Activity (Rattus norvegicus [14]): Active | Activity (Rattus norvegicus [15]): inactive | Activity (Rattus norvegicus [16]): inactive | Activity (Rattus norvegicus [17]): inactive | Activity (Rattus norvegicus [18]): inactive | Activity (Rattus norvegicus [19]): inactive | Activity (Rattus norvegicus [20]): inactive | Activity (Rattus norvegicus [21]): Active | Activity (Rattus norvegicus [22]): Active | Activity (Rattus norvegicus [23]): inactive | Activity (Rattus norvegicus [24]): inactive | Activity (Rattus norvegicus [25]): inactive | Activity (Rattus norvegicus [26]): Active | Activity (Rattus norvegicus [27]): Active | Activity (Rattus norvegicus [28]): 15% | Activity (Rattus norvegicus [29]): 16.2% | Activity (Rattus norvegicus [30]): Active | Activity (Rattus norvegicus [31]): Active | Activity (Rattus norvegicus [32]): inactive | Activity (Rattus norvegicus [33]): inactive | Activity (Rattus norvegicus [34]): inactive | Activity (Rattus norvegicus [35]): Active | Activity (Rattus norvegicus [36]): inactive | Activity (Rattus norvegicus [37]): inactive | Activity (Rattus norvegicus [38]): inactive | Activity (Rattus norvegicus [39]): inactive | Activity (Rattus norvegicus [40]): Active | Activity (Rattus norvegicus [41]): inactive | Activity (Rattus norvegicus [42]): inactive | Activity (Rattus norvegicus [43]): Active | Activity (Rattus norvegicus [44]): inactive | Activity (Rattus norvegicus [45]): Active | Activity (Rattus norvegicus [46]): Active | Activity (Rattus norvegicus [47]): inactive | Activity (Rattus norvegicus [48]): inactive
